According to patent US12208001B2, “Methods and systems for preventing or reducing stenosis in a subject receiving a graft” (The General Hospital Corporation, priority 2012, dated 2025):
Like-named read-outs stand apart in the source and are kept apart here.

Assays:
[1] = test system: fascia of the implant pocket; assay: Biodegradation assay: collagenase digestion of fascia; set-up: species or system rabbit
Description: A pilot experiment in a rabbit model for capsular contraction was developed. Three sub-cutaneous pockets were made by surgical incision on the upper rabbit flank. One pocket was left untreated and surgically closed (No fibrin glue). Of the remaining two, one was treated with Fibrin Glue only, and one received Fibrin Glue+RB (0.1% Rose Bengal)+532 nm light (3 min at 350 mW). Fibrin glue is known to produce a fibrotic reaction in this model. After two weeks all three pockets were surgically re-accessed and inspected. […] These cells also appear contained under layers of presumably, cross-linked collagen. A biodegradation assay was also performed. Pockets were treated as described above at both a low (1 J/cm^2) and high (25 J/cm^2) fluence. Fluence was measured using FieldMax II laser power meter (Coherent, Santa Clara, CA). Immediately following, the skin and fascia were removed. Treated and untreated fascia were biopsied with a six mm punch biopsy, weighed and subjected to digestion in a 1% collagenase (Sigma Aldrich. St. Louis, MO) solution at 37° C. Time for complete digestion (the lack of any visible fibers) was recorded for each sample and corrected by weight. In vitro studies confirmed that photochemical tissue passivation, under the conditions that were subsequently used in the animal study, could successfully alter the fascia of the implant pocket. […]

connective tissue = test system: connective tissue
From the text: In certain embodiments, a photoactive agent, e.g., Rose Bengal, can be applied, e.g., by brushing, dripping or spraying onto, or injecting into, tissue surfaces (e.g., a single surface in some cases) of a tissue prior to the application of electromagnetic energy, followed by irradiation at an irradiance of less than about 1 W/cm^2. Penetration of topically applied Rose Bengal is about 100 μm or less into connective tissue. […] Similarly, vein grafts or arteriovenous fistula can be prepared for therapeutic use by providing Rose Bengal to the tissue and irradiating the tissue at an irradiance of less than about 1 W/cm^2.

[2] = test system: vein graft intimal hyperplasia; type: in vivo, Sprague-Dawley rats
Description: In vivo testing was done by placing a. reversed epigastric vein interposition graft in the femoral artery of Sprague-Dawley rats. Grafts were harvested after four weeks. A total of 16 rats underwent a femoral interposition graft with reversed epigastric vein. Half of the vein gratis (N=8) were treated with PTP using 25 J/cm^2 at fluence. Average operative time was two hours. Additional operative time for PTP was 4-5 minutes on average. There were three instances of surgical wound dehiscence between post-operative day one and two; one in the control group and two in the experimental group. These wounds were irrigated and resutured. None of the grafts were exposed. […] After four weeks, 100% of the vein grafts were patent. […] Histologic cross-sections of the mid-portion of the graft were analyzed using light microscopy. Intimal thickness was measured as the distance between the internal elastic lamina. and the vessel lumen.

[3] = test system: capsular contracture following prosthetic implant placement; assay: Pre-clinical model of capsular contracture following prosthetic implant placement, fibrin glue induced; type: in vivo, New Zealand white rabbits
Description: The effect of Photochemical Tissue Passivation in a pre-clinical model of capsular contracture following prosthetic implant placement was evaluated. Under general anesthesia, Nine New Zealand white rabbits received three, six cc smooth saline implants placed in the dorsal sub-panniculus soft tissue. Each Rabbit received one control implant and two experimental implants. Briefly, the subpanniculus camosus plane in the dorsum region was dissected and a single customized six cc saline smooth implant with pressure port valve (Allergan Inc., CA, USA) was placed. A total of three implants were placed on the dorsum of each rabbit. The control group consisted of an implant with no Fibrin Glue and no PTP treatment. Before implant placement, the pocket site of the PTP experimental group was treated with 2 ml 0.1% Rose Bengal in a phosphate buffered saline, and Was then exposed to green laser light at 532 nm from a continuous wave KTP laser (Laserscope Aura-I, San Jose, CA). The second experimental group consisted of an implant with Fibrin Glue only. Prior to implant placement, all experimental pockets were injected with five cc of fibrin glue, 500 |μl of 10% CaCl, 1000 units of thrombin in one milliliter of 50 mM TrisCl as a contracture inducing agent. The incisions were closed in two layers with subdermal 4-0 […] and 4-0 interrupted nylon sutures. Topical fibrin glue was applied to the implant pockets in all experimental groups to induce subsequent capsular contracture. Accordingly, the experimental groups can be summarized as follows: Group 1: Control group-“Standard Breast Augmentation” One pocket per Rabbit undergoing standard implant placement with no Fibrin Glue or Passivation. One six cc smooth saline implant was placed per pocket. The incisions were closed in two layers with subdermal 4-0 Vicryl and 4-0 interrupted nylon sutures. Group 2: Experimental group-“Fibrin Glue” only One dorsal pocket per Rabbit is dissected. Fibrin glue was injected into the implant pocket as a capsular contracture-inducing agent. One six cc smooth saline implants was placed per pocket. The incision was closed as above. Group 3: Experimental group-“Pre-implant Tissue Passivation” One dorsal pocket per Rabbit was dissected, Rose Bengal dye was applied. The pocket was exposed to green laser light at. 532 nm from. a continuous wave KT.? laser (Laserscope Aura-I, San Jose, CA). Fibrin glue was injected into the implant pocket as a capsular contracture-inducing agent. Following fibrin glue injection, one six cc smooth saline implant was placed per pocket. The incision was closed as above. Capsule specimens were fixed with 10% buffered formalin and embedded in paraffin. Sections were stained with both Masson Trichrome, and SMA antibody and evaluated histologically and capsular thickness was measured. […] In fact, the SMA pattern in capsules harvested from the treated groups resembled those, which had not been instilled with fibrin glue (FIG. 3).

[4] = test system: rabbit model for capsular contraction; assay: Pilot rabbit model for capsular contraction: sub-cutaneous pockets with fibrin glue, histology at two weeks; type: in vivo; conditions: tissue harvested at two weeks; 0.1% Rose Bengal + 532 nm light (3 min at 350 mW) prior to fibrin glue; vs fibrin glue only
Description: A pilot experiment in a rabbit model for capsular contraction was developed. Three sub-cutaneous pockets were made by surgical incision on the upper rabbit flank. One pocket was left untreated and surgically closed (No fibrin glue). Of the remaining two, one was treated with Fibrin Glue only, and one received Fibrin Glue+RB (0.1% Rose Bengal)+532 nm light (3 min at 350 mW). Fibrin glue is known to produce a fibrotic reaction in this model. After two weeks all three pockets were surgically re-accessed and inspected. […] These cells also appear contained under layers of presumably, cross-linked collagen. A biodegradation assay was also performed. Pockets were treated as described above at both a low (1 J/cm^2) and high (25 J/cm^2) fluence. Fluence was measured using FieldMax II laser power meter (Coherent, Santa Clara, CA). Immediately following, the skin and fascia were removed. Treated and untreated fascia were biopsied with a six mm punch biopsy, weighed and subjected to digestion in a 1% collagenase (Sigma Aldrich. St. Louis, MO) solution at 37° C. Time for complete digestion (the lack of any visible fibers) was recorded for each sample and corrected by weight.

## O=C1OC2(c3cc(I)c(O)c(I)c3Oc3c2cc(I)c(O)c3I)c2c(Cl)c(Cl)c(Cl)c(Cl)c21 [PTP, Rose Bengal]
[1]; 1% collagenase, 37° C, compared to untreated tissue
  increase in degradation time (collagenase digestion): 300%
[1]; high (25 J/cm^2) vs low (1 J/cm^2) fluence
  effect of increasing the power of the laser on collagen cross-linking: did not increase collagen cross-linking
Connective tissue
  penetration into connective tissue: ≤ 100 μm
[2]; after four weeks, N = 8, Table 2
  Intimal Thickness: 24 + 22 um
[2]; after four weeks, N = 8, Table 3
  Medial thickness: 141 + 40 um
[2]; after four weeks, all grafts, treated and untreated
  vein grafts patent: 100%
[2]; four weeks, PTP 25 J/cm^2, N=8
  neointimal thickness: 24+22 μm
[2]; four weeks, treated grafts
  Medial thickness: 141 µm
[2]; rat, in vivo
  instances of surgical wound dehiscence: two
  pseudoaneurysms or aneurysmal dilatation of the grafts: no pseudoaneurysms or aneurysmal dilatation
  wound infections: no wound infections
[2]; restored blood flow, compared to untreated controls
  graft distention after vessel clamp removal: less distention
[2]; treated compared to untreated grafts
  smooth muscle hypertrophy and medial thickness: marked reduction in smooth muscle hypertrophy and medial thickness
[2]; treated grafts vs untreated
  reduction in neointimal thickness: 70%
[3]; eight weeks, Fibrin Glue + Photochemical Tissue Passivation group
  capsular thickness compared to Fibrin Glue alone control (histology): significant decrease in capsular thickness
[3]; eight weeks, compared to the controls
  decrease in capsule thickness: 52%
[3]; eight weeks, treated pockets vs untreated pockets receiving fibrin glue
  deposition of smooth muscle actin (SMA immunohistochemistry): significantly less deposition of smooth muscle actin
[3]; treated pockets
  fibrohistiocystic cells, macrophages and synovial metaplasia: less fibrohistiocystic cells, macrophages and synovial metaplasia
  inflammation and vascularity within the capsule: decreased inflammation and vascularity
[4]
  inflammatory infiltrate within the implant pockets (histology): less infiltrate
